Assay results taken from patent publication US7763662B2, “Use of C2-substituted indan-1-ol systems for preparing medicaments for the prophylaxis or treatment of obesity” (Sanofi-Aventis Deutschland GmbH, priority 2001, dated 2010).

How the values were obtained:
[1] = test system: female NMRI mice; test: Anorectic action: cumulative evaporated milk consumption after 24 h feed removal; format: in vivo; settings: ip or po (route not specified), N=5; for Reduction in cumulative milk consumption as % of the control: compared with vehicle-treated control animals; for cumulative milk consumption by treated animals: milk offered 30 min after administration, monitored for 7 hours
Method: The activity of the compounds was assayed as follows:
The anorectic action was tested on female NMRI mice. After removal of feed for 24 hours, the preparation to be tested was administered intraperitoneally (ip) or by gavage (po). The animals were housed singly and, with free access to drinking water, they were offered evaporated milk 30 minutes after administration of the preparation. The consumption of evaporated milk was determined and the general behavior of the animals was monitored every half an hour for 7 hours. The measured milk consumption was compared to that of vehicle-treated control animals.

melting point [°C] | Structure (SMILES) | Reduction in cumulative milk consumption as % of the control ([1]; dose 20 mg/kg) | cumulative milk consumption by treated animals ([1]; dose 20 mg/kg) | Reduction in cumulative milk consumption as % of the control ([1]; dose 50 mg/kg) | cumulative milk consumption by treated animals ([1]; dose 50 mg/kg)
197.1 | CSC1Cc2cc(Cl)ccc2C1O (stereo not shown) (hydrate or solvate) [Example 4, 5-Chloro-2-methylsulfanylindan-1-ol] | – | – | – | –
163 | CS(=O)(=O)C1Cc2cc(Cl)ccc2C1O (stereo not shown) [Example 1, 5-Chloro-2-methylsulfonylindan-1-ol] | 50 % of the control | 5/1.94 ml | – | –
145 | CCS(=O)(=O)C1Cc2cc(Cl)ccc2C1O (stereo not shown) [Example 3, 5-Chloro-2-ethanesulfonylindan-1-ol] | – | – | – | –
– | CSC1Cc2cc(Cl)ccc2C1O (stereo not shown) [Example 4, 5-Chloro-2-methylsulfanylindan-1-ol] | – | – | 85 % of the control | 5/0.70 ml
